Laboratory results published in patent US20060030616A1, “Anhydride modified cantharidin analogues useful in the treatment of cancer” (priority 1998, published 2006).

What was measured:
[1] = system: HT29 cells; test: MTT cytotoxicity assay, 72 h; format: cell-based, human; conditions: Homo sapiens, HT-29, 72 h; HT29, p53 mt; read-out: IC50 (mean ± SE) after 72 h continuous exposure
Protocol: (§1) Cells in a subconfluent phase are transferred to 96-well microtitre plates. L1210 cells are plated at a density of 1000 cells/well in 100 μl medium, while all other cell lines are plated at a density of 2000-25000 cells/well. The cells are left for 24 h prior to treatment to ensure exponential growth has been achieved, 24 h after plating (day 0), 100 μl of phosphatase inhibitor is added to each well, control wells received 100 μl of medium only. Drug exposure time is 72 h (day 3). The effect of phosphatase inhibition is tested in triplicate over a concentration range of […]−1×10^−8 M. Growth inhibitory effects are evaluated using the MTT assay and absorbance read at […]. The IC50 is the drug concentration at which cell growth is 50% inhibited based on the difference of optical density on day 0 and day 3 of drug exposure. Cytotoxicity is evaluated using a spectrophotometric assay which determines the percentage of cell growth following exposure of the cells to various concentrations of the phosphatase inhibitors for a period of 72 hours. The subsequent dose response curve is used to calculate IC50 values (the drug concentration at which cell growth is 50% inhibited).
(§2) Anti-cancer screening of the protein phosphatase inhibitors is assessed using the MTT assay. This assay determines cell viability by the ability of mitochondrial dehydrogenase to produce formazan crystals from 3-(4,5-dimethylthiazol-2-yl)-2,5-diphenyltetrazolium bromide. The viable cell number/well is directly proportional to the production of formazan, which following solubilization, can be measured spectrophotometrically (540 nm). This technique is also used by the National Cancer Institute to screen for new anticancer agents.
(§3) As described herein a number of cantharidin analogues have been synthesised and tested for their anticancer activity in nine cancer cell lines using the MTT assay after 72 h exposure. These new analogues are shown in FIG. 2 and have been designated MK-1 through to MK-9.

[2] = system: HL60 cells; test: MTT cytotoxicity assay, 72 h; format: cell-based, human; conditions: Homo sapiens, HL-60, 72 h; HL60, p53 nul; read-out: IC50 (mean ± SE) after 72 h continuous exposure
Protocol: as §1, §2, §3

[3] = system: L1210 cells; test: Checkpoint abrogation after 6 Gy radiation, flow cytometry; format: cell-based, murine; conditions: 12 h after drug
Protocol: (§4) The cells are fixed in 70% ethanol and stored at −20° C. until analysis is performed (1-2 weeks). After fixing, the cells are pelleted and incubated in PBS containing propidium iodide ([…]) and RNase A (200 mg/ml) for at least 30 min at room temperature. The samples (2×10^4 events) are analysed using a Becton Dickson FACScan, fluorescence is collected in fluorescence detector 2 (FL2), filter 575/30 nm band pass. Cell cycle distribution is assessed using Cell Quest software (Becton Dickson).
(§5) The ability of the protein phosphatase inhibitors to abrogate the G1 or G2 checkpoint of the cell cycle may be determined by cell cycle analysis using flow cytometry. Briefly, asynchronous cell cultures are harvested 18 h after 6 Gy irradiation and/or 12 h incubation with the protein phosphatase inhibitor. Depending upon the p53 status of the cell line, radiation treatment alone will induce arrest in either G1 and/or G2 phase of the cell cycle.
(§6) If the protein phosphatase inhibitor abrogates the G2 checkpoint then the cells will not arrest in the G2 phase of the cell cycle and the cells will continue through the cell cycle and accumulate in the G1 phase of the cell cycle only. Similarily if the protein phosphatase inhibitors abrogates the G1 checkpoint then the cells will not arrest in the G1 phase of the cell cycle and accumulate in the G2 phase of the cell cycle only. Cell cycle analysis using propidium iodide labelling of DNA has been used extensively in our laboratory to assess the effect of specific anticancer agents that induce S-phase cell cycle arrest and apoptotic cell death (Sakoff, Ackland and Stewart, 1998). Experiments were performed on a Becton Dickinson FACScan and using Cell Quest software.
(§7) The cells were treated with 6 Gy of radiation and then treated with cantharidin 6 h later. The ability to abrogate cell cycle arrest was assessed is 12 h after the addition of the drugs.

[4] = system: HCT116 cells; test: as above; format: cell-based, human; conditions: 12 h after drug
Protocol: as §4, §5, §6, §7

[5] = system: HT29 cells; test: as above; format: cell-based, human; conditions: 12 h after drug
Protocol: as §4, §5, §6, §7

[6] = system: HL60 cells; test: as above; format: cell-based, human; conditions: 12 h after drug
Protocol: as §4, §5, §6, §7

Structure (SMILES): C[C@@]12C(=O)OC(=O)[C@]1(C)[C@H]1CC[C@@H]2O1 [Cantharidin, exo.exo-2.3-dimethyl-7-oxobicyclo[2.2.1]heptane-2,3-dicarboxylic acid anhydride]
- IC50 [1]: 6.4 ± 0.7 µM
- IC50 [2]: 13 µM
- Cell Cycle Distribution, G1 ([3]; L1210, 1 μM, 18 h after 6Gy): 27.2 percentage of total
- Cell Cycle Distribution, G2 + M ([3]; L1210, 1 μM, 18 h after 6Gy): 37.5 percentage of total
- Cell Cycle Distribution, S ([3]; L1210, 1 μM, 18 h after 6Gy): 25.6 percentage of total
- Cell Cycle Distribution, sub G1 ([3]; L1210, 1 μM, 18 h after 6Gy): 1.6 percentage of total
- Cell Cycle Distribution, G1 ([3]; L1210, 5 μM, 18 h after 6Gy): 25.8 percentage of total
- Cell Cycle Distribution, G2 + M ([3]; L1210, 5 μM, 18 h after 6Gy): 41.5 percentage of total
- Cell Cycle Distribution, S ([3]; L1210, 5 μM, 18 h after 6Gy): 31.9 percentage of total
- Cell Cycle Distribution, sub G1 ([3]; L1210, 5 μM, 18 h after 6Gy): 2.4 percentage of total
- Cell Cycle Distribution, G1 ([3]; L1210, 10 μM, 18 h after 6Gy): 24.9 percentage of total
- Cell Cycle Distribution, G2 + M ([3]; L1210, 10 μM, 18 h after 6Gy): 43.7 percentage of total
- Cell Cycle Distribution, S ([3]; L1210, 10 μM, 18 h after 6Gy): 29.4 percentage of total
- Cell Cycle Distribution, sub G1 ([3]; L1210, 10 μM, 18 h after 6Gy): 3.4 percentage of total
- Cell Cycle Distribution, G1 ([3]; L1210, 50 μM, 18 h after 6Gy): 4.1 percentage of total
- Cell Cycle Distribution, G2 + M ([3]; L1210, 50 μM, 18 h after 6Gy): 77.4 percentage of total
- Cell Cycle Distribution, S ([3]; L1210, 50 μM, 18 h after 6Gy): 15.6 percentage of total
- Cell Cycle Distribution, sub G1 ([3]; L1210, 50 μM, 18 h after 6Gy): 4.9 percentage of total
- Checkpoint remark ([3]; L1210, 50 μM, 18 h after 6Gy): G1 abrogation
- Checkpoint abrogation ([3]; L1210, 6 Gy): abrogated radiation induced G1 arrest
- Cell Cycle Distribution, G1 ([4]; HCT116, 1 μM, 18 h after 6Gy): 26.1 percentage of total
- Cell Cycle Distribution, G2 + M ([4]; HCT116, 1 μM, 18 h after 6Gy): 58.2 percentage of total
- Cell Cycle Distribution, S ([4]; HCT116, 1 μM, 18 h after 6Gy): 13.8 percentage of total
- Cell Cycle Distribution, sub G ([4]; HCT116, 1 μM, 18 h after 6Gy): 4.2 percentage of total
- Cell Cycle Distribution, G1 ([4]; HCT116, 5 μM, 18 h after 6Gy): 23.6 percentage of total
- Cell Cycle Distribution, G2 + M ([4]; HCT116, 5 μM, 18 h after 6Gy): 63.3 percentage of total
- Cell Cycle Distribution, S ([4]; HCT116, 5 μM, 18 h after 6Gy): 10.4 percentage of total
- Cell Cycle Distribution, sub G ([4]; HCT116, 5 μM, 18 h after 6Gy): 4.0 percentage of total
- Cell Cycle Distribution, G1 ([4]; HCT116, 10 μM, 18 h after 6Gy): 25.7 percentage of total
- Cell Cycle Distribution, G2 + M ([4]; HCT116, 10 μM, 18 h after 6Gy): 62.2 percentage of total
- Cell Cycle Distribution, S ([4]; HCT116, 10 μM, 18 h after 6Gy): 9.4 percentage of total
- Cell Cycle Distribution, sub G ([4]; HCT116, 10 μM, 18 h after 6Gy): 4.2 percentage of total
- Cell Cycle Distribution, G1 ([4]; HCT116, 50 μM, 18 h after 6Gy): 12.2 percentage of total
- Cell Cycle Distribution, G2 + M ([4]; HCT116, 50 μM, 18 h after 6Gy): 63.3 percentage of total
- Cell Cycle Distribution, S ([4]; HCT116, 50 μM, 18 h after 6Gy): 15.6 percentage of total
- Cell Cycle Distribution, sub G ([4]; HCT116, 50 μM, 18 h after 6Gy): 12.0 percentage of total
- Checkpoint remark ([4]; HCT116, 50 μM, 18 h after 6Gy): G1 abrogation
- Checkpoint abrogation ([4]; HCT116, 6 Gy): abrogated radiation induced G1 arrest
- Cell Cycle Distribution, G1 ([5]; HT29, 1 μM, 18 h after 6Gy): 35.2 percentage of total
- Cell Cycle Distribution, G2 + M ([5]; HT29, 1 μM, 18 h after 6Gy): 38.2 percentage of total
- Cell Cycle Distribution, S ([5]; HT29, 1 μM, 18 h after 6Gy): 10.6 percentage of total
- Cell Cycle Distribution, sub G ([5]; HT29, 1 μM, 18 h after 6Gy): 16.6 percentage of total
- Cell Cycle Distribution, G1 ([5]; HT29, 5 μM, 18 h after 6Gy): 38.6 percentage of total
- Cell Cycle Distribution, G2 + M ([5]; HT29, 5 μM, 18 h after 6Gy): 46.3 percentage of total
- Cell Cycle Distribution, S ([5]; HT29, 5 μM, 18 h after 6Gy): 10.6 percentage of total
- Cell Cycle Distribution, sub G ([5]; HT29, 5 μM, 18 h after 6Gy): 5.3 percentage of total
- Cell Cycle Distribution, G1 ([5]; HT29, 10 μM, 18 h after 6Gy): 21.1 percentage of total
- Cell Cycle Distribution, G2 + M ([5]; HT29, 10 μM, 18 h after 6Gy): 60.8 percentage of total
- Cell Cycle Distribution, S ([5]; HT29, 10 μM, 18 h after 6Gy): 12.3 percentage of total
- Cell Cycle Distribution, sub G ([5]; HT29, 10 μM, 18 h after 6Gy): 6.4 percentage of total
- Cell Cycle Distribution, G1 ([5]; HT29, 50 μM, 18 h after 6Gy): 23.0 percentage of total
- Cell Cycle Distribution, G2 + M ([5]; HT29, 50 μM, 18 h after 6Gy): 43.1 percentage of total
- Cell Cycle Distribution, S ([5]; HT29, 50 μM, 18 h after 6Gy): 20.7 percentage of total
- Cell Cycle Distribution, sub G ([5]; HT29, 50 μM, 18 h after 6Gy): 14.7 percentage of total
- Checkpoint remark ([5]; HT29, 50 μM, 18 h after 6Gy): G1 abrogation
- Checkpoint abrogation ([5]; HT29, 6 Gy): abrogated radiation induced G1 arrest
- Cell Cycle Distribution, G1 ([6]; HL60, 1 μM, 18 h after 6Gy): 5.2 percentage of total
- Cell Cycle Distribution, G2 + M ([6]; HL60, 1 μM, 18 h after 6Gy): 85.8 percentage of total
- Cell Cycle Distribution, S ([6]; HL60, 1 μM, 18 h after 6Gy): 3.0 percentage of total
- Cell Cycle Distribution, sub G ([6]; HL60, 1 μM, 18 h after 6Gy): 6.2 percentage of total
- Cell Cycle Distribution, G1 ([6]; HL60, 5 μM, 18 h after 6Gy): 5.7 percentage of total
- Cell Cycle Distribution, G2 + M ([6]; HL60, 5 μM, 18 h after 6Gy): 86.8 percentage of total
- Cell Cycle Distribution, S ([6]; HL60, 5 μM, 18 h after 6Gy): 3.5 percentage of total
- Cell Cycle Distribution, sub G ([6]; HL60, 5 μM, 18 h after 6Gy): 4.4 percentage of total
- Cell Cycle Distribution, G1 ([6]; HL60, 10 μM, 18 h after 6Gy): 5.6 percentage of total
- Cell Cycle Distribution, G2 + M ([6]; HL60, 10 μM, 18 h after 6Gy): 85.1 percentage of total
- Cell Cycle Distribution, S ([6]; HL60, 10 μM, 18 h after 6Gy): 4.3 percentage of total
- Cell Cycle Distribution, sub G ([6]; HL60, 10 μM, 18 h after 6Gy): 5.3 percentage of total
- Cell Cycle Distribution, G1 ([6]; HL60, 50 μM, 18 h after 6Gy): 10.2 percentage of total
- Cell Cycle Distribution, G2 + M ([6]; HL60, 50 μM, 18 h after 6Gy): 64.9 percentage of total
- Cell Cycle Distribution, S ([6]; HL60, 50 μM, 18 h after 6Gy): 11.3 percentage of total
- Cell Cycle Distribution, sub G ([6]; HL60, 50 μM, 18 h after 6Gy): 14.3 percentage of total
- Checkpoint remark ([6]; HL60, 50 μM, 18 h after 6Gy): Cell Death
- Checkpoint abrogation ([6]; HL60, 6 Gy): abrogated radiation induced G1 arrest
